Data reported in article PMC10217546, “Antioxidant Activities of Dihydromyricetin Derivatives with Different Acyl Donor Chain Lengths Synthetized by Lipozyme TL IM” (Foods, 2023).
Read-outs that look alike come from different tables or passages of the source. Marks after values point to notes of the source that are not given here.

Columns and labels:
[1] = DPPH radical scavenging ability; conditions: for IC50 DPPH: DPPH radical scavenging test; for scavenging rate of DPPH free radicals: sample concentration 20 μg/mL, 30 min in the dark, 517 nm
Description: The method used to determine the abilities of DHM and its acylated derivatives was a previous method with some modifications. Two milliliters of DPPH (0.065 mg/mL) and 2 mL of the sample (3, 5, 10, 15, and 20 μg/mL) were added to a centrifuge tube and described at 517 nm after 30 min of reaction in a dark environment. Vc (a water-soluble antioxidant) and TBHQ (a lipid soluble antioxidant) were used as controls. (2) DPPH radical scavenging activity (%) =(1−A1 - A2/A0) × 100 where A0, A1, and A2 represent the absorbance values of the DPPH-ethanol, DPPH-sample, and sample-ethanol mixtures, respectively.

[2] = ABTS radical scavenging ability; conditions: ABTS radical scavenging test, 30 °C, 6 min, 734 nm
Description: The ability of DHM and its acylated derivatives to scavenge ABTS radicals was evaluated using a previous method with some modification. Samples (0.1 mL, 0.01, 0.02, 0.04, 0.06, and 0.08 mg/mL) were added to 3.9 mL of ABTS solution and measured at 734 nm after incubation at 30 °C for 6 min. Vc (a water-soluble antioxidant) and TBHQ (a lipid soluble antioxidant) were used as controls. (3) ABTS radical scavenging activity (%) =(1−A1 - A2/A0) × 100 where A0, A1, and A2 represent the absorbance values of the ABTS-ethanol, ABTS-samples, and samples-ethanol mixtures, respectively.

[3] = Partition coefficient of lipids and water (log P), n-octanol/water by HPLC; format: physicochemical
Description: The lipophilicity of DHM and its derivatives was evaluated using log P, which was determined by a previous method with several modifications. Two milligrams of sample were dissolved in n-octanol solution (4 mL) saturated by water and analyzed using HPLC at 298 nm (A0). The n-octanol solution (1 mL) saturated by water containing the sample was mixed with water solution (1 mL) saturated by n-octanoland and then shaken using a constant-temperature water bath oscillator (Tianjin, China) at 30 °C for 24 h at 150 rpm. The ultraviolet absorbance of the upper solution was analyzed at 298 nm (Ax). The calculation equation of log P is as follows:(1) log P=log Ax / (A0 − Ax)

L-02 cells = assay: Cellular antioxidant activity (CAA) assay in L-02 cells; format: cell-based, Human
Description: Human normal hepatocytes (L-02 cells, passage number 4) were purchased from Cell Bank of Shanghai Institutes for Biological Sciences, Chinese Academy of Sciences (Shanghai, China) and cultured in RPMI 1640 medium (Invitrogen, Carlsbad, CA, USA) supplemented with 10% FBS and 1% penicillin-streptomycin double antibody and were cultured at 37 °C in 5% CO2.
The CAA assay was made using the method of Wolfe and Liu with modifications. L-02 cells were inoculated in black 96-well plates (6 × 10^4 /well, 100 μL) and incubated for 24 h. After removing culture medium, and the cells were washed with PBS and treated with the samples and DCFH-DA (25 μmol/L) for 1 h. Then, the cells were divided into two groups. One group was washed with PBS, and ABAP (600 μmol/L, 100 μL) was added to each well. Another group was only treated with adding 100 μL of ABAP (600 μmol/L) without washing. The black 96-well plates were measured by a Thermo Scientific Fluoroskan Ascent FL (Thermo Fisher Scientific, Waltham, MA, USA) every 5 min for 1 h at an emission wavelength of 538 nm and an excitation wavelength of 485 nm. Three control wells and one blank well were set. The control well was made up of the cells treated with ABAP but without samples, and the blank well was made up of the cells treated without ABAP and samples. Quercetin was used as the positive control. (6) CAA unit=1 - ∫SA/∫CA × 100 where ∫SA represents the area integral under the sample fluorescence value versus time curve and ∫CA represents the area integral under the control fluorescence value versus time curve.

[4] = PBS wash between antioxidant and ABAP treatments, read-out: EC50 CAA Unit Wash
[5] = no PBS wash between antioxidant and ABAP treatments, read-out: EC50 CAA Unit No Wash
[6] = n-octanol/water, shaken at 30 °C for 24 h, HPLC at 298 nm
[7] = Homo sapiens, L02, PBS wash between antioxidant and ABAP treatments, read-out: EC50 CAA Unit Wash
[8] = Homo sapiens, L02, no PBS wash between antioxidant and ABAP treatments, read-out: EC50 CAA Unit No Wash

| Structure (SMILES) | IC50 DPPH [1] | scavenging rate of DPPH free radicals [1] [%] | IC50 ABTS [2] | log P [3] | EC50 (L-02 cells; [4]) [µM] | EC50 (L-02 cells; [5]) [µM] | log P [3, 6] | logP at 24 h [3, 6] | EC50 (L-02 cells; [7]) [µM] | EC50 (L-02 cells; [8]) [µM] |
| --- | --- | --- | --- | --- | --- | --- | --- | --- | --- | --- |
| CCCCCCCCCCCC(=O)OC1C(=O)c2c(O)cc(O)cc2OC1c1cc(O)c(O)c(O)c1 (stereo not drawn) [C12-DHM, 3-O-lauroyl-DHM] | 35.93 ± 5.63 ^d μg/mL | 29.62 ± 4.88 | 360.69 ± 50.13 ^b μg/mL | 1.80 | 122 ± 9.48 | 234 ± 9.69 |  |  |  |  |
| CC(=O)OC1C(=O)c2c(O)cc(O)cc2OC1c1cc(O)c(O)c(O)c1 (stereo not drawn) [C2-DHM, 3-O-acetyl-DHM] | 9.07 ± 0.10 ^bc μg/mL | 92.58 ± 1.33 | 58.29 ± 2.20 ^a μg/mL |  | 172 ± 8.84 | 77.8 ± 3.81 | 1.32 |  |  |  |
| O=C1c2c(O)cc(O)cc2O[C@H](c2cc(O)c(O)c(O)c2)[C@H]1O [DHM, Dihydromyricetin] | 9.04 ± 0.09 ^bc μg/mL | 93.37 ± 1.83 | 46.51 ± 2.19 ^a μg/mL |  |  |  |  | 0.81 | 226 ± 4.67 | 90.2 ± 5.02 |
| O=c1c(O)c(-c2ccc(O)c(O)c2)oc2cc(O)cc(O)c12 [Quercetin, reference compound] |  |  |  |  |  |  |  |  | 29 ± 0.36 | 33.9 ± 3.67 |
| CCCCCC(=O)OC1C(=O)c2c(O)cc(O)cc2OC1c1cc(O)c(O)c(O)c1 (stereo not drawn) [C6-DHM, 3-O-hexanoyl-DHM] | 11.17 ± 0.04 ^bc μg/mL | 82.53 ± 1.98 | 77.22 ± 1.46 ^a μg/mL |  | 52.9 ± 2.69 | 65.2 ± 3 | 1.67 |  |  |  |
| CCCCCCCC(=O)OC1C(=O)c2c(O)cc(O)cc2OC1c1cc(O)c(O)c(O)c1 (stereo not drawn) [C8-DHM, 3-O-octanoyl-DHM] | 12.69 ± 0.09 ^c μg/mL | 74.14 ± 0.40 | 80.15 ± 0.42 ^a μg/mL | 1.73 | 35.14 ± 0.29 | 45.4 ± 0.74 |  |  |  |  |
| CC(C)(C)c1cc(O)ccc1O [TBHQ, tert-butylhydroquinone, reference compound] | 7.55 ± 0.18 ^ab μg/mL |  | 79.34 ± 3.37 ^a μg/mL |  |  |  |  |  |  |  |
| CCCC(=O)OC1C(=O)c2c(O)cc(O)cc2OC1c1cc(O)c(O)c(O)c1 (stereo not drawn) [C4-DHM, 3-O-butyryl-DHM] | 9.08 ± 0.25 ^bc μg/mL | 92.70 ± 0.79 | 56.30 ± 1.03 ^a μg/mL | 1.50 | 60.7 ± 0.64 | 60.8 ± 6.23 |  |  |  |  |
| O=C1O[C@H]([C@@H](O)CO)C(O)=C1O [Vc, L-ascorbic acid, reference compound] | 4.23 ± 1.38 ^a μg/mL |  | 61.02 ± 2.15 ^a μg/mL |  |  |  |  |  |  |  |
